Test results from patent US20110077251A1, “NOVEL 17 BETA LUPANE DERIVATIVES” (priority 2009, published 2011).
pIC50: −log10 of the molar value.

The molecules below were run on HIVIIIB (assay: HIV-1 replication in MT2 cell line with 30% human serum (RT activity in supernatant)). Conditions: Human immunodeficiency virus 1, 120 h, MT2 cells, day 5 after infection, average if tested more than once, read-out: MT2 (HIVIIIB) with human serum IC50 range.
Type: cell-based
Procedure: HIV-1 Replication in MT2 cell line with and without 30% human serum: The cells are infected at a Multiciplicity of Infection (MOI) of 0.5 for 3 h and then washed twice with complete media to remove residual virus. Cells are then resuspended at 0.5×10^6/ml in complete medium (RPMI, 10% FBS, 1% sodium pyruvate), and seeded into 96-well plates (6.25×10^4/well). The cells are cultured in the presence or absence of various concentrations of test compounds in serial dilutions for 3 days at 37° C. The test compounds are serially diluted in complete medium supplemented or not with 30% human serum. After 3 days, 100 μL of cultured medium with cells are replaced with 120 μL of freshly diluted test compounds in complete medium containing or not 30% Human serum. The level of HIV-1 replication is determined at days 5 after infection by the presence of viral RT activity in harvested supernatant fluid. The IC50 values for the virus replication are determined by using GRAPHPAD PRISM software.
The IC50 of the compounds tested in accordance with the HIV replication activity assay MT2 (HIVIIIB) with or without human serum are represented in Table 6.

First: C=C(C)[C@@H]1CC[C@]2(NC(=O)OC(C)(C)C)CC[C@]3(C)[C@H](CC[C@@H]4[C@@]5(C)CC[C@H](OC(=O)[C@H]6CC[C@@](C)(C(=O)O)C6(C)C)C(C)(C)[C@@H]5CC[C@]43C)[C@@H]12 [Cpd 8-3, 3β-O-[(1′S,3′R)-2′,2′,3′-Trimethyl-cyclopentane-3′-carboxylic acid-1′-carboxyl]-17β-tert-butyloxycarbonylamino-28-norlup-20(29)-ene]
Second: C=C(C)[C@@H]1CC[C@]2(N)CC[C@]3(C)[C@H](CC[C@@H]4[C@@]5(C)CC[C@H](OC(=O)[C@H]6CC[C@@](C)(C(=O)O)C6(C)C)C(C)(C)[C@@H]5CC[C@]43C)[C@@H]12 [Cpd 9-2, 3β-O-[(1′S,3′R)-2′,2′,3′-Trimethyl-cyclopentane-3′-carboxylic acid-1′-carboxyl]-17β-amino-28-norlup-20(29)-ene]
The pIC50 of the first is lower: under 6.00 for the first, over 6.70 for the second.

`C=C(C)[C@@H]1CC[C@]2(N)CC[C@]3(C)[C@H](CC[C@@H]4[C@@]5(C)CC[C@H](OC(=O)CC(C)(C)C(=O)O)C(C)(C)[C@@H]5CC[C@]43C)[C@@H]12` [Cpd 9-1, 17β-Amino-3β-O-(3′,3′-dimethylsuccinyl)-28-norlup-20(29)-ene] and `C=C(C)[C@@H]1CC[C@]2(N(C)C)CC[C@]3(C)[C@H](CC[C@@H]4[C@@]5(C)CC[C@H](OC(=O)CC(C)(C)C(=O)O)C(C)(C)[C@@H]5CC[C@]43C)[C@@H]12` [Cpd 10-3, 3β-O-(3′,3′-Dimethylsuccinyl)-17β-dimethylamino-28-norlup-20(29)-ene] cannot be ordered by pIC50: over 6.70 for the first, over 6.70 for the second.

`C=C(C)[C@@H]1CC[C@]2(N)CC[C@]3(C)[C@H](CC[C@@H]4[C@@]5(C)CC[C@H](OC(=O)[C@H]6CCC[C@@H](C(=O)O)C6)C(C)(C)[C@@H]5CC[C@]43C)[C@@H]12` [Cpd 9-3, 3β-O-(cis-Cyclohexane-3′-carboxylic acid-1′-carboxyl)-17β-amino-28-norlup-20(29)-ene] and `C=C(C)[C@@H]1CC[C@]2(NC(=O)N3CCCCC3)CC[C@]3(C)[C@H](CC[C@@H]4[C@@]5(C)CC[C@H](OC(=O)CC(C)(C)C(=O)O)C(C)(C)[C@@H]5CC[C@]43C)[C@@H]12` [Cpd 11-11, 3β-O-(3′,3′-Dimethylsuccinyl)-17β-[(piperidine-1-carbonyl)-amino]-28-norlup-20(29)-ene] cannot be ordered by pIC50: over 6.70 for the first, over 6.70 for the second.

`C=C(C)[C@@H]1CC[C@]2(NC(=O)Nc3ccccc3)CC[C@]3(C)[C@H](CC[C@@H]4[C@@]5(C)CC[C@H](OC(=O)CC(C)(C)C(=O)O)C(C)(C)[C@@H]5CC[C@]43C)[C@@H]12` [Cpd 11-12, 3β-O-(3′,3′-Dimethylsuccinyl)-17β-(N′-phenyl-ureido)-28-norlup-20(29)-ene] and `C=C(C)[C@@H]1CC[C@]2(NC(=O)N(C)C)CC[C@]3(C)[C@H](CC[C@@H]4[C@@]5(C)CC[C@H](OC(=O)CC(C)(C)C(=O)O)C(C)(C)[C@@H]5CC[C@]43C)[C@@H]12` [Cpd 11-13, 3β-O-(3′,3′-Dimethylsuccinyl)-17β-(N′,N′-dimethyl-ureido)-28-norlup-20(29)-ene] cannot be ordered by pIC50: over 6.70 for the first, over 6.70 for the second.

In the case of `C=C(C)[C@@H]1CC[C@]2(NC(=O)NCC3CCN(C)CC3)CC[C@]3(C)[C@H](CC[C@@H]4[C@@]5(C)CC[C@H](OC(=O)CC(C)(C)C(=O)O)C(C)(C)[C@@H]5CC[C@]43C)[C@@H]12` [Cpd 11-14, 3β-O-(3′,3′-Dimethylsuccinyl)-17β-[N′-(1-methyl-piperidin-4-ylmethyl)-ureido]-28-norlup-20(29)-ene], the pIC50 was over 6.70.

Same assay, conditions: MT2 cells, day 5 after infection, average if tested more than once, read-out: MT2 (HIVIIIB) with human serum IC50 range

Going from “3β-O-(2′,2′-Dimethylsuccinyl)-17β-tert-butyloxycarbonylamino-28-norlup-20(29)-ene [Cpd 8-2]” to `C=C(C)C1CCC2(NCC3CC3)CCC3(C)C(CCC4C5(C)CCC(OC(=O)CC(C)(C)C(=O)O)C(C)(C)C5CCC43C)C12` (stereo not drawn) [Cpd 10-2, 17β-(Cyclopropylmethyl-amino)-3β-O-(3′,3′-dimethylsuccinyl)-28-norlup-20(29)-ene], the pIC50 rises from under 6.00 to over 6.70. The second is the more potent here.
